According to publication PMC10914731, “Homo-BacPROTAC-induced degradation of ClpC1 as a strategy against drug-resistant mycobacteria” (Nature Communications, 2024):
≈ marks a conversion by molar mass, not a printed value. Where “and” joins values, the source holds several entries; their conditions need not be identical. Equal values may be shown once. Read-outs that look alike come from different tables or passages of the source. Where a SMILES comes first, the peptide text is derived from it. [ ]: non-standard residue; d: D form. NMeTrp(1-Me) = CN[C@@H](Cc1cn(C)c2ccccc12)C(=O)O; NMeLeu(5-OH,4R) = CN[C@@H](C[C@@H](C)CO)C(=O)O; Phe(βR-OMe) = CO[C@H](c1ccccc1)[C@H](N)C(=O)O; NMeL = CN[C@@H](CC(C)C)C(=O)O; Pra = C#CC[C@H](N)C(=O)O

How the values were obtained:
[1] = target: ClpC1-NTD substrate, M. tuberculosis ClpC1P1P2 (Mycobacterium tuberculosis, UniProt P9WPC9); experiment: biochemical; assay type: biochemical; conditions: Mtb
Sequence of ClpC1-NTD substrate, M. tuberculosis ClpC1P1P2 (P9WPC5 whole entry): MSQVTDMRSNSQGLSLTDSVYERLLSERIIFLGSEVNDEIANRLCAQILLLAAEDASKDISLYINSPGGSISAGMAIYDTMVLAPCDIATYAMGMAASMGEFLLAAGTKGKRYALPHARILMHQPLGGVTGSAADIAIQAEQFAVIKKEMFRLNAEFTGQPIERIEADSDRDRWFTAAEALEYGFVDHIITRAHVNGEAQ
Sequence of ClpC1-NTD substrate, M. tuberculosis ClpC1P1P2 (P9WPC9 whole entry): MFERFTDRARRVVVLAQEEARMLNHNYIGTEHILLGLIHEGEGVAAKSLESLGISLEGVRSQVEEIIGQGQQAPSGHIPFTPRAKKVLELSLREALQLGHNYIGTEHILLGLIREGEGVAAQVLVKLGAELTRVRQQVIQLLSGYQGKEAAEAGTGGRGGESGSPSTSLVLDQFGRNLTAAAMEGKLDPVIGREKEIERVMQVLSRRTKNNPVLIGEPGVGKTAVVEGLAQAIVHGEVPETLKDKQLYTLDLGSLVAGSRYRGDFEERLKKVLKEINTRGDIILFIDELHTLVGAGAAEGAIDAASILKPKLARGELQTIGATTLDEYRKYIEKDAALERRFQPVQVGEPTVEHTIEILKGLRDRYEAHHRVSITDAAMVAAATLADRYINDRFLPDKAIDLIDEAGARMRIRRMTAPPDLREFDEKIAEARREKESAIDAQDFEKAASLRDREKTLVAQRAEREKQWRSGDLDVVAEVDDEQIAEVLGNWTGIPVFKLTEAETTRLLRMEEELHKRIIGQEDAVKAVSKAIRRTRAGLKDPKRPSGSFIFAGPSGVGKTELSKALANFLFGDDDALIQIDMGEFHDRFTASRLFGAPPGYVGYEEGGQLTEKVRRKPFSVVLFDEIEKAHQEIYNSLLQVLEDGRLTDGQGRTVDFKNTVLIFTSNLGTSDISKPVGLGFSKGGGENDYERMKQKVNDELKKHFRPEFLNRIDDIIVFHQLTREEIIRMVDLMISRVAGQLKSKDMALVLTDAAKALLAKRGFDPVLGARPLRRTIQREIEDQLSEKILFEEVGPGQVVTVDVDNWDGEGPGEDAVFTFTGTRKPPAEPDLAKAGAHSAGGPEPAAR
Sequence of ClpC1-NTD substrate, M. tuberculosis ClpC1P1P2 (P9WPC3 whole entry, further chain): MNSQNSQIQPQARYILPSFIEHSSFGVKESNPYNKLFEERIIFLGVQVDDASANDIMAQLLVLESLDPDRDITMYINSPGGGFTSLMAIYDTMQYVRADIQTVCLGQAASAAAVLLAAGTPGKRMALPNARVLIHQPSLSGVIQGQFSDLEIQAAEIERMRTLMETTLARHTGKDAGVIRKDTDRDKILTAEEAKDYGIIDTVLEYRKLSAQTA

[2] = assay type: in vitro ADME, Rat; conditions: for Microsomal Stability Rat: clearance in microsomes
Method: (§1) The kinetics of compound degradation in liver microsomes is assessed in an assay with 1 µmol/l of compound and 0.5 mg/ml liver microsomes in a medium of 100 mM Tris-HCl pH 7.5, 6.5 mM MgCl2 and 1 mM NADPH at 37 °C. The reaction is stopped at multiple time points by adding acetonitrile. After centrifugation, the compound concentration is measured in the supernatants by high-performance liquid chromatography (HPLC) tandem mass spectrometry (MS/MS). The results are fitted to a first-order decay and the half-lives are converted to clearance (stated as % of the liver blood flow (%Qh)) using the well-stirred liver model.

[3] = assay type: in vitro ADME, Human; conditions: human, pH 7.4
[4] = system: M. tuberculosis H37Rv (ATCC 27294); experiment: microbe, parasite or virus in culture; assay type: cell-based
[5] = assay type: in vitro ADME, Rat; conditions: rat, pH 7.4
[6] = in vitro; conditions: human; for efflux ratio: Caco-2
Procedure, shortened: (§2)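 Permeability across Caco-2 monolayers was measured in both directions, apical-to-basolateral and basolateral-to-apical, in 10^-6 cm s-1. Efflux ratio = P(B−A)/P(A−B). Intrinsic permeability is the mean of P(A−B) and P(B−A).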

[7] = system: Caco-2 monolayers; experiment: in vitro; conditions: human, Caco-2
Procedure, shortened: as §2

[8] = system: Msm 700084; experiment: microbe, parasite or virus in culture; assay type: cell-based
[9] = assay type: in vitro ADME, Mice; conditions: for Microsomal Stability Mice: clearance in microsomes
Method: as §1

[10] = target: ClpC1 NTD protein (M. tuberculosis) (Mycobacterium tuberculosis, UniProt P9WPC9); experiment: biochemical; assay type: binding
Sequence of ClpC1 NTD protein (M. tuberculosis) (P9WPC9 1-156, looked up, natural form): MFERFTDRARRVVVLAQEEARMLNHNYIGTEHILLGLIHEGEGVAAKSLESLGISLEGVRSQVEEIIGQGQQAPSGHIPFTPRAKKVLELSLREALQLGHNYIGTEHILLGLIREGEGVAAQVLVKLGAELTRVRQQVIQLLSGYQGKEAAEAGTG

[11] = Microsomal stability, human; assay type: in vitro ADME; conditions: for Microsomal Stability Human: clearance in microsomes
Procedure, shortened: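 1 µmol/l cpd + 0.5 mg/ml microsomes, Tris-HCl 100 mM pH 7.5 / MgCl2 6.5 mM / NADPH 1 mM, 37 °C. Timed acetonitrile quench, spin, supernatant by HPLC-MS/MS. t1/2 from first-order decay → clearance %Qh, well-stirred model.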

[12] = Hepatocyte stability, mice; assay type: in vitro ADME; conditions: mouse, pH 7.4
Procedure, shortened: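 Clearance, expressed as % of liver blood flow (% Qh), derived from parent-compound half-life by the well-stirred model, with HPLC-MS/MS quantitation after acetonitrile quench. Test compound at 1 µM final added to mouse hepatocyte suspension in 50% serum after 15–30 min acclimation at 37 °C; six samples over up to 6 h.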

[13] = target: His6-tagged ClpC1-NTD substrate, M. smegmatis ClpC1P1P2 (UniProt A0R574+P9WPC9); experiment: biochemical; assay type: biochemical; conditions: Msm
Sequence of His6-tagged ClpC1-NTD substrate, M. smegmatis ClpC1P1P2 (P9WPC9 1-156, looked up, natural form): as above
Sequence of His6-tagged ClpC1-NTD substrate, M. smegmatis ClpC1P1P2 (A0R574 whole entry): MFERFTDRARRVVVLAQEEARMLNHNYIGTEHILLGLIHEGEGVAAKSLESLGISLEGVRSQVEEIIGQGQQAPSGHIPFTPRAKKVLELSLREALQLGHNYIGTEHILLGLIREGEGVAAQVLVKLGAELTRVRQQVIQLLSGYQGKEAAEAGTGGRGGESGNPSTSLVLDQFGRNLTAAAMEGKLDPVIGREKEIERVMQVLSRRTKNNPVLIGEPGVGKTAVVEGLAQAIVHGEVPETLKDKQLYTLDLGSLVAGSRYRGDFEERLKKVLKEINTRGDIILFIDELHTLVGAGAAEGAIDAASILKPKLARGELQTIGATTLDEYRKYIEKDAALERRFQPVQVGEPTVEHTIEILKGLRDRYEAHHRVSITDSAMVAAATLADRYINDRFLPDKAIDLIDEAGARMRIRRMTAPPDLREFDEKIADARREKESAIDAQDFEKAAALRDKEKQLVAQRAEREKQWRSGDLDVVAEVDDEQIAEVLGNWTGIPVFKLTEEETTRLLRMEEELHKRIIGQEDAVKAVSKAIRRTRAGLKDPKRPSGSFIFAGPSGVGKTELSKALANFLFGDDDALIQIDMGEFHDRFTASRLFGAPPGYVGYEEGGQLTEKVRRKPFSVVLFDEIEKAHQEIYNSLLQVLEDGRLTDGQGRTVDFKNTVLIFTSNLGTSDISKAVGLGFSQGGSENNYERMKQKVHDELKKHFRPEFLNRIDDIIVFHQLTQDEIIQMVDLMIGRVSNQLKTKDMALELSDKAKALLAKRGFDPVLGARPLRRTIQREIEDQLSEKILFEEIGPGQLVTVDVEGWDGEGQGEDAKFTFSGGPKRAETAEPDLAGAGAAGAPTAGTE

[14] = system: Msm 607; experiment: microbe, parasite or virus in culture; assay type: cell-based
[15] = Measurement 1-4, read-out: 1-Dmax, single measurements
[16] = mean of the measurements, read-out: 1-Dmax, Mean
[17] = mean of the measurements, read-out: DC50, Mean
[18] = Mycobacterium tuberculosis, Mtb H37Rv (Supplementary Table 2), read-out: MIC Mtb
[19] = Mycobacterium tuberculosis, single determinations, read-out: Mtb MIC
[20] = Caco-2, Caco-2 permeability P (A-B)
[21] = Mycolicibacterium smegmatis, 700084, single determinations, read-out: Msm 700084 MIC
[22] = Mycolicibacterium smegmatis, 700084, read-out: MIC Msm 700084
[23] = SPR (Supplementary Table 1), read-out: KD ClpC1-NTD Mean ± SD
[24] = SPR dissociation rate constant, read-out: koff ClpC1-NTD Mean ± SD
[25] = SPR, single independent measurements
[26] = SPR, single independent measurements, read-out: KD ClpC1-NTD
[27] = SPR, single independent measurements, read-out: koff ClpC1-NTD
[28] = Measurement 1-6, read-out: 1-Dmax, single measurements
[29] = Mycolicibacterium smegmatis, 607, read-out: MIC Msm 607
[30] = Mycolicibacterium smegmatis, 607, read-out: Msm 607 MIC, single determinations
[31] = Mycobacterium tuberculosis, M. tuberculosis H37Rv strain, read-out: MIC Mtb H37Rv Mean ± SD
[32] = Mycobacterium tuberculosis, individual measurements (source data), read-out: Mtb MIC
[33] = Caco-2, Caco-2 permeability P (B-A)
[34] = SPR, individual measurements (source data), read-out: KD ClpC1-NTD
[35] = SPR, read-out: ClpC1-NTD KD Mean ± SD

SMILES | Microsomal Stability Rat QH [2] [%] | Microsomal Stability Rat [2] [%Qh] | Hepatocyte Human [3] [%Qh] | Hepatocyte Stability Human QH [3] [%] | MIC [4, 18] [µM] | MIC [4, 19] [µM] | Hepatocyte Rat [5] [%Qh] | Hepatocyte Stability Rat QH [5] [%] | Papp A→B ([6]; Caco-2, CACO permeability PEAB) [×10⁻⁶ cm/s] | Papp A→B [6, 20] [×10⁻⁶ cm/s] | Caco-2 Int. Perm [7] | MIC [8, 21] [µM] | MIC [8, 22] [µM] | Microsomal Stability Mouse QH [9] [%] | Microsomal Stability Mice [9] [%Qh] | Microsomal Stability Human QH [11] [%] | Microsomal Stability Human [11] [%Qh] | Hepatocyte Mice [12] [%Qh] | MIC [14, 29] [µM] | MIC [14, 30] [µM] | further results
CO[C@H](c1ccccc1)[C@@H]1NC(=O)[C@H](C)NC(=O)[C@H](C[C@@H](C)CO)N(C)C(=O)[C@H](Cc2cn(Cc3cn(CCCCCn4cc(Cn5cc(C[C@@H]6NC(=O)[C@H](C(C)C)NC(=O)[C@H](CC(C)C)N(C)C(=O)[C@H](C(C)C)NC(=O)[C@H]([C@H](OC)c7ccccc7)NC(=O)[C@H](C)NC(=O)[C@H](C[C@@H](C)CO)N(C)C6=O)c6ccccc65)nn4)nn3)c3ccccc23)NC(=O)[C@H](C(C)C)NC(=O)[C@H](CC(C)C)N(C)C(=O)[C@H](C(C)C)NC1=O [Compound 9] | <23.100 | < 23 | 12 | 12.386 | 0.3 ± 0.1 (≈ 0.611 µg/mL) | 0.39 (≈ 0.794 µg/mL) | 6 | 6.192 | < 1.2 | < 0.2 | 0.1 | > 50 | > 50 | 24.7 | 25 | 43.3 | 43 | 15 | 0.8 (≈ 1.63 µg/mL) | 0.78 (≈ 1.59 µg/mL) | 1-Dmax, single measurements ([1]; Measurement 1-4): 29.9% and 20.5%; 1-Dmax (percent substrate remaining at maximal degradation) [1, 15]: 27.5%; DC50 ([1]; Measurement 1-4, read-out: DC50, single measurements): 7200 nM and 8700 nM and 4400 nM; 1-Dmax (percent substrate remaining at maximal degradation) [1, 16]: 26%; DC50 [1, 17]: 6800 nM; MIC ([4]; single determinations, read-out: Mtb MIC): 0.195 µM (≈ 0.397 µg/mL); Papp B→A ([6]; Caco-2, CACO permeability PEBA): < 0.28 ×10⁻⁶ cm/s; Caco-2 permeability P (B-A) [7]: 0; Kd [10, 23]: 0.6 ± 0.2 nM; koff [10, 24]: 0.0005 s⁻¹; koff ClpC1-NTD [10, 25]: 0.0005 s⁻¹ and 0.0006 s⁻¹; Kd [10, 26]: 0.453 nM and 0.515 nM and 0.745 nM; koff [10, 27]: 0.0005 s⁻¹; Hepatocyte Stability Mouse QH [12]: 15.001%; 1-Dmax, single measurements ([13]; Measurement 1-6): 54.4% and 51.4%; 1-Dmax (percent substrate remaining at maximal degradation) [13, 28]: 54.7%; DC50 ([13]; Measurement 1-6, read-out: DC50, single measurements): 7800 nM and 9200 nM and 6900 nM; 1-Dmax (percent substrate remaining at maximal degradation) [13, 16]: 54%; DC50 [13, 17]: 8000 nM
CO[C@H](c1ccccc1)[C@@H]1NC(=O)[C@H](C)NC(=O)[C@H](C[C@@H](C)CO)N(C)C(=O)[C@H](Cc2cn(Cc3cn(CCOCCOCCOCCOCCn4cc(Cn5cc(C[C@H]6C(=O)N(C)[C@@H](C[C@@H](C)CO)C(=O)N[C@@H](C)C(=O)N[C@@H]([C@H](OC)c7ccccc7)C(=O)N[C@@H](C(C)C)C(=O)N(C)[C@@H](CC(C)C)C(=O)N[C@@H](C(C)C)C(=O)N6C)c6ccccc65)nn4)nn3)c3ccccc23)N(C)C(=O)[C@H](C(C)C)NC(=O)[C@H](CC(C)C)N(C)C(=O)[C@H](C(C)C)NC1=O [Compound 27] | 41.300 | 41 | 12 | 12.386 | < 0.1 | < 0.1 | 6 | 6.192 |  | < 6.4 | 4.1 | 0.78 (≈ 1.72 µg/mL) | 0.8 (≈ 1.76 µg/mL) | 77.100 | 77 | >88.400 | > 88 | 15 | 1.6 (≈ 3.52 µg/mL) | 1.56 (≈ 3.43 µg/mL) | 1-Dmax, single measurements ([1]; Measurement 1-4): 70.9% and 71.4% and 79.4%; 1-Dmax (percent substrate remaining at maximal degradation) [1, 15]: 75.3%; 1-Dmax (percent substrate remaining at maximal degradation) [1, 16]: 74%; DC50 [1, 17]: 24700 nM; MIC [4, 31]: < 0.1 µM; MIC [4, 32]: < 0.1 µM; Papp B→A [6, 33]: < 1.7 ×10⁻⁶ cm/s; koff [10, 24]: 0.002 s⁻¹; Kd [10, 34]: 0.3 nM and 0.576 nM; koff ClpC1-NTD [10, 25]: 2E-3 2E-3 1/s; koff [10, 27]: 0.002 s⁻¹; Kd [10, 35]: 0.4 ± 0.2 nM; 1-Dmax, single measurements ([13]; Measurement 1-6): 93.8% and 90.4%; 1-Dmax (percent substrate remaining at maximal degradation) [13, 28]: 89.3%; 1-Dmax (percent substrate remaining at maximal degradation) [13, 16]: 91%; DC50 [13, 17]: 12500 nM
C#CC[C@@H]1NC(=O)[C@H](CC(C)C)N(C)C(=O)[C@H](C(C)C)NC(=O)[C@H]([C@H](OC)c2ccccc2)NC(=O)[C@H](C)NC(=O)[C@H](C[C@@H](C)CO)N(C)C(=O)[C@H](Cc2cn(C)c3ccccc23)N(C)C1=O [Compound 20] (cyclo(A[Phe(βR-OMe)]V[NMeL][Pra][NMeTrp(1-Me)][NMeLeu(5-OH,4R)])) | >87.900 | > 88 | 34 | 34.158 | 50 (≈ 46.4 µg/mL) | 50 (≈ 46.4 µg/mL) | 63 | 63.002 | 2 | 2.8 | 15.7 | > 50 | > 50 | >88.400 | > 88 | >88.400 | > 88 | 59 | 25 (≈ 23.2 µg/mL) | 25 (≈ 23.2 µg/mL) | MIC [4, 31]: 50 µM (≈ 46.4 µg/mL); MIC [4, 32]: 50 µM (≈ 46.4 µg/mL); MIC ([4]; individual measurements (source data), read-out: Mtb MIC): 50.000 µM (≈ 46.4 µg/mL); efflux ratio [6]: 11.8; Papp B→A ([6]; Caco-2, CACO permeability PEBA): 36 ×10⁻⁶ cm/s; Papp B→A [6, 33]: 28.5 ×10⁻⁶ cm/s; Influence of N-methylation on permeability [7]: >11.8; Permeability Correlation P (A-B) [7]: > 28; Kd [10, 34]: 14.1 nM and 13.7 nM; Kd [10, 35]: 13.9 ± 0.3 nM; Hepatocyte Stability Mouse QH [12]: 58.928%
CO[C@H](c1ccccc1)[C@@H]1NC(=O)[C@H](C)NC(=O)[C@H](C[C@@H](C)CO)N(C)C(=O)[C@H](Cc2cn(C)c3ccccc23)N(C)C(=O)[C@H](CCC(=O)N(C)C)NC(=O)[C@H](CC(C)C)N(C)C(=O)[C@H](C(C)C)NC1=O [SI-76] (cyclo(A[Phe(βR-OMe)]V[NMeL]E(NMe2)[NMeTrp(1-Me)][NMeLeu(5-OH,4R)])) | 78.000 | 78 |  | 19.852 | 6.3 (≈ 6.23 µg/mL) | 6.25 (≈ 6.18 µg/mL) | 52 | 52.287 | < 0.11 | < 0.1 | 4.3 | 25 (≈ 24.7 µg/mL) | 25 (≈ 24.7 µg/mL) | >88.400 | > 88 | >88.400 | > 88 | 23 | 12.5 (≈ 12.4 µg/mL) | 12.5 (≈ 12.4 µg/mL) | efflux ratio [6]: > 84; Papp B→A ([6]; Caco-2, CACO permeability PEBA): 10 ×10⁻⁶ cm/s; Kd [10, 23]: 26 ± 6 nM; koff [10, 24]: 0.06 s⁻¹; koff ClpC1-NTD [10, 25]: 6E-2 6E-2 1/s; Kd [10, 26]: 21.4 nM and 30.5 nM; koff [10, 27]: 0.06 s⁻¹; Hepatocyte Stability Mouse QH [12]: 23.483%
